Assays:
colon cancer cells = conditions: preclinical studies, Kapitza et al. 2005; cited from earlier work
cancer = conditions: cited from earlier work
[1] = system: Hep3B liver carcinoma xenograft; assay: Hep3B liver carcinoma xenograft assay, survival; assay type: in vivo, CB17 SCID mice; conditions: SCID mice, test drug 30 mg/kg i.v. day 1 and 8, sorafenib 25 mg/kg p.o. days 1-5 and 8-12, control 33 days
Procedure: Xenograft Assay: CB17 severe combined immunodeficient (SCID) female mice were used for all in vivo studies. The mice received food and water ad libitum. For tumor application, logarithmically growing Hep3B cells in cell culture were collected by trypsinization and washed once in serum-free culture medium. The cells were then pelleted and resuspended in culture medium to a final cell count of 2×10^7/ml. 50 μl of the cell suspension was injected s.c. in the right flank of each mouse. Treatment started when all animals in the study had established tumors of a size of about 3×3 mm.
Sorafenib (LC Laboratories, Woburn, Mass., USA) was dissolved in DMSO (50 mg/ml), further diluted in Cremophor EL/95% ethanol (50:50; Sigma), which was followed by a 1:4 dilution in water. 100 μl sorafenib was administered p.o. once daily at 5 consecutive days for two weeks at a dose of 25 mg/kg body weight (days 1-5 and days 8-12).
Tumor size was calculated using the equation (l×w^2)/2, where l and w refer to the larger and smaller dimensions, respectively, of the tumor. 4 mice were used in each group for each data point.

| Structure (SMILES) | inducing apoptosis in colon cancer cells (colon cancer cells) | anti-cancer activities in a phase I clinical trial (cancer) | increase in life span / mean survival vs. control [1] | mean survival [1] |
| --- | --- | --- | --- | --- |
| [Cl-].[Cl-].[Cl-].[Cl-].[Ru+3].c1ccc2[nH][nH+]cc2c1.c1ccc2[nH]ncc2c1.c1ccc2[nH]ncc2c1 [KP1019, indazolium trans-[tetrachlorobis(1H-indazole)ruthenate (III)]] | effective in inducing apoptosis | some anti-cancer activities |  |  |
| [Cl][Ru-]([Cl])([Cl])[Cl].[Na+].c1ccc2[nH]ncc2c1.c1ccc2[nH]ncc2c1 [Test drug] | effective in inducing apoptosis |  | 2.4 fold | 80 days |
| CNC(=O)c1cc(Oc2ccc(NC(=O)Nc3ccc(Cl)c(C(F)(F)F)c3)cc2)ccn1 [sorafenib, reference compound] |  |  | 1.9 fold | 60 days |

— US20130129840A1, “COMBINATION THERAPY USING A RUTHENIUM COMPLEX” (Niiki Pharma Inc., priority 2010, published 2013)
